Results reported in PMC8729770, “In Vitro Evaluation of Antimicrobial Peptides from the Black Soldier Fly (Hermetia Illucens) against a Selection of Human Pathogens” (Microbiology Spectrum, 2022).
pIC50: −log10 of the molar value. Where “and” joins values, the source holds several entries; their conditions need not be identical. Equal values may be shown once. Read-outs that look alike come from different tables or passages of the source. Ends that are not written are not given here. Peptide text beside a SMILES is read from it.

How the values were obtained:
[1] = Cytotoxicity screening of the peptide library; assay type: cell-based, human; settings: human; both repeats; read-out: IC50 cell toxicity MRC5-SV2
Protocol: (§1) To determine early signs of peptide toxicity, the library was tested against the MRC5-SV2 cell line of human, embryonic lung fibroblasts (Sigma-Aldrich). Peptides were serially diluted in 96-well plates as described earlier at concentrations ranging from 64 μM to 0.25 μM for the first screening, and from 32 μM to 0.016 μM for the independent repeat. Tamoxifen (Sigma-Aldrich) was included as a reference compound. After preparation of the test plates, cell suspension (190 μL) of 1.5 × 10^5 cells/mL in complete minimum essential medium (Gibco) was added to the peptides. Plates were incubated for 72 h at 37°C in a 5% CO2 incubator (Binder). Afterwards, 50 μL of a 0.01% (wt/vol) resazurin (Sigma-Aldrich) solution was added to the wells to detect cell viability.

[2] = test system: MRC5-SV2 cell line of human, embryonic lung fibroblasts; test: Cytotoxicity screening of the peptide library; assay type: cell-based; settings: 72 h, 37°C, resazurin fluorescence
Protocol: as §1

S. aureus ATCC 6538 = assay type: cell-based, Staphylococcus aureus; settings: for pIC50: MHB, 37°C, resazurin, 50% growth inhibition; for pIC50 / MIC S. aureus ATCC 6538: 16 h; for MIC S. aureus ATCC 6538: determined visually; for MBC S. aureus ATCC 6538: wells without visual growth plated on MHA, ≥3 log reduction vs growth control
Protocol: (§2) To detect antimicrobial activity of the BSF AMPs, the peptide library underwent screening against a panel of microorganisms, consisting of S. aureus ATCC 6538, E. coli ATCC 8739, P. aeruginosa ATCC 9027, C. albicans B59630, and A. fumigatus B42928. Serial dilutions of the peptides were prepared from the DMSO stock solutions in sterile demineralized water in 96-well plates using an automated liquid-handling workstation (Beckman Coulter Biomek 3000) in end volumes of 10 μL. The final in-plate concentration of DMSO was <1%. Peptide concentrations ranged from 64 μM to 0.25 μM for the first evaluation, and from 32 μM to 0.016 μM for the independent repeat. As references, doxycycline (Sigma-Aldrich; S. aureus, E. coli, P. aeruginosa), flucytosine (Sigma-Aldrich; C. albicans), and econazole (Sigma-Aldrich; A. fumigatus) were used. Suspensions of a starting inoculum of 5 × 10^3 CFU/mL (E. coli, S. aureus, C. albicans, A. fumigatus) and 5 × 10^4 CFU/mL (P. aeruginosa) were prepared in MHB (bacterial species) or RPMI medium (fungal species) and 190 μL was added to the 96-well plates. Plates were incubated for 16 h (E. coli, S. aureus, P. aeruginosa), 24 h (C. albicans), or 48 h (A. fumigatus) at 37°C. After incubation, read-out of the antimicrobial activity was performed using a resazurin assay. Then, 20 μL of a 0.01% (wt/vol) resazurin (Sigma-Aldrich) solution was added to each well and plates were incubated for 15 min (S. aureus), 30 min (E. coli), 45 min (P. aeruginosa), 4 h (C. albicans), or 17 h (A. fumigatus) to allow resazurin reduction to take place. Fluorescence was read using a microplate reader (Telix) at λexcitation = 550 nm and λemission = 590. […] MIC values were determined visually. Medium in the wells with no visual growth was plated on MHA to detect the MBC, defined as ≥3 log reduction compared with the growth control.

E. coli ATCC 8739 = assay type: cell-based, Escherichia coli; settings: for pIC50: MHB, 37°C, resazurin; for pIC50 / MIC E. coli ATCC 8739: 16 h; for MIC E. coli ATCC 8739: determined visually
Protocol: as §2

P. aeruginosa ATCC 9027 = assay type: cell-based, Pseudomonas aeruginosa; settings: for pIC50: MHB, 37°C, resazurin; for pIC50 / MIC P. aeruginosa ATCC 9027: 16 h; for MIC P. aeruginosa ATCC 9027: determined visually; for MBC P. aeruginosa ATCC 9027: plated on MHA, ≥3 log reduction vs growth control
Protocol: as §2

C. albicans B59630 = assay type: cell-based, Candida albicans; settings: RPMI, 24 h, 37°C, resazurin
Protocol: as §2

A. fumigatus B42928 = assay type: cell-based, Aspergillus fumigatus; settings: RPMI, 48 h, 37°C, resazurin
Protocol: as §2

[3] = repeat 1, first screening 64-0.25 μM
[4] = repeat 2, independent repeat 32-0.016 μM

Row | Compound | pIC50 [2, 3] | pIC50 [2, 4] | pIC50 (S. aureus ATCC 6538; repeat 1, 64-0.25 μM) | MIC S. aureus ATCC 6538 (S. aureus ATCC 6538; repeat 1, 64-0.25 μM) [µM] | pIC50 (S. aureus ATCC 6538; repeat 2, 32-0.016 μM) | MIC S. aureus ATCC 6538 (S. aureus ATCC 6538; repeat 2, 32-0.016 μM) | pIC50 (E. coli ATCC 8739; repeat 1, 64-0.25 μM) | MIC E. coli ATCC 8739 (E. coli ATCC 8739; repeat 1, 64-0.25 μM) [µM] | pIC50 (E. coli ATCC 8739; repeat 2, 32-0.016 μM) | MIC E. coli ATCC 8739 (E. coli ATCC 8739; repeat 2, 32-0.016 μM) | pIC50 (P. aeruginosa ATCC 9027; repeat 1, 64-0.25 μM) | MIC P. aeruginosa ATCC 9027 (P. aeruginosa ATCC 9027; repeat 1, 64-0.25 μM) | pIC50 (P. aeruginosa ATCC 9027; repeat 2, 32-0.016 μM) | MIC P. aeruginosa ATCC 9027 (P. aeruginosa ATCC 9027; repeat 2, 32-0.016 μM) | pIC50 (C. albicans B59630; repeat 1, 64-0.25 μM) | pIC50 (C. albicans B59630; repeat 2, 32-0.016 μM) | pIC50 (A. fumigatus B42928; repeat 1, 64-0.25 μM) | pIC50 (A. fumigatus B42928; repeat 2, 32-0.016 μM) | other results
1 | CC[C@H](C)[C@H](N)C(=O)N[C@@H](CCCCN)C(=O)N[C@@H](CS)C(=O)N[C@H](C(=O)N1CCC[C@H]1C(=O)N[C@@H](CO)C(=O)N[C@@H](CCC(N)=O)C(=O)N[C@@H](CS)C(=O)N[C@@H](CC(N)=O)C(=O)N[C@@H](CCC(N)=O)C(=O)N[C@H](C(=O)N[C@@H](CS)C(=O)N[C@@H](CCCNC(=N)N)C(=O)N[C@H](C(=O)N[C@@H](CC(C)C)C(=O)NCC(=O)N[C@@H](CCCCN)C(=O)N[C@@H](CCCCN)C(=O)N[C@@H](CS)C(=O)NCC(=O)N[C@@H](Cc1ccc(O)cc1)C(=O)N[C@@H](CS)C(=O)N[C@@H](CCCCN)C(=O)N[C@@H](CC(N)=O)C(=O)N[C@@H](C)C(=O)N[C@@H](CO)C(=O)N[C@H](C(=O)N[C@@H](CS)C(=O)N[C@H](C(=O)N[C@@H](CS)C(=O)N[C@@H](CC(C)C)C(N)=O)C(C)C)[C@@H](C)O)C(C)C)[C@@H](C)CC)C(C)C [Hill-Knot2] (H-IKCVPSQCNQICRVLGKKCGYCKNASTCVCL-NH2; N-terminus assumed) | – | – | – | – | – | – | – | – | – | – | – | – | – | – | – | – | – | – | pIC50 [1]: > 4.49
2 | ATCDLLSPFKVGHAACAAHCIARGKRGGWCDKRAVCNCRK (also: bicyclic or more (positions not given here)) [Hill-Def2b, Defensin with disulfide bridges, counterpart of Hill-Def2a] | < 4.19 | < 4.49 | 5.07 | 64.00 | 4.87 | > 32.00 µM and 32.00 µM | < 4.19 | > 32.00 | < 4.49 | > 64.00 µM and 64.00 µM | < 4.19 | > 32.00 µM and >64.00 µM | < 4.49 | > 64.00 µM and >32.00 µM | < 4.19 | < 4.49 | < 4.19 | < 4.49 | concentration for 90% growth inhibition of S. aureus / activity against S. aureus (S. aureus ATCC 6538; library screening, both repeats): 32 µM and 64 µM; MBC S. aureus ATCC 6538 (S. aureus ATCC 6538; repeat 1): static; MBC S. aureus ATCC 6538 (S. aureus ATCC 6538; repeat 2): static
3 | ATCTNWNCRTQCIARGKRGGYCVERNICKCTS [Hill-Def3, Defensin without disulfide bridges] | < 4.19 | < 4.49 | < 4.19 | > 64.00 | < 4.49 | > 32.00 µM | < 4.19 | > 64.00 | < 4.49 | > 32.00 µM | < 4.19 | > 64.00 µM | < 5.52 | > 32.00 µM | < 4.19 | < 4.49 | < 4.19 | < 4.49 | –
4 | DQSKEPFKPMERPYQRVRDAKIQGITIAQNGPNVLAITRGGLEQ [Hill-Cec6, Cecropin, C-terminal amidation] | < 4.19 | < 4.49 | < 4.19 | > 64.00 | < 4.49 | > 32.00 µM | < 4.19 | > 32.00 | < 4.49 | > 64.00 µM | < 4.19 | > 32.00 µM | < 4.49 | – | < 4.19 | < 4.49 | < 4.19 | < 4.49 | MBC E. coli ATCC 8739 (E. coli ATCC 8739; repeat 2, plated on MHA, ≥3 log reduction vs growth control): 2.00 µM; MBC P. aeruginosa ATCC 9027 (P. aeruginosa ATCC 9027; repeat 1): 16.00 µM; MBC P. aeruginosa ATCC 9027 (P. aeruginosa ATCC 9027; repeat 2): 2.00 µM
5 | FNNLPICVEGLAGDIGSILLGVESDIGALAGAIANLALIAGECAAQGEAGAAICA-NH2 (cysteines drawn unpaired) [Hill-Stom1] | – | – | – | > 64.00 | – | > 32.00 µM | – | > 32.00 | – | > 64.00 µM | – | > 32.00 µM | – | > 64.00 µM | – | – | – | – | pIC50 [1]: > 4.49
6 | LSCLFENQAVSAIACGASCITRKGKRGGWCSNGVCRCTPN [Hill-Def6, Defensin without disulfide bridges] | < 4.19 | < 4.49 | < 4.19 | > 64.00 | < 4.49 | > 32.00 µM | < 4.19 | > 64.00 | < 4.49 | > 32.00 µM | < 4.19 | > 64.00 µM | < 4.49 | > 32.00 µM | < 4.19 | < 4.49 | < 4.19 | < 4.49 | –
7 | QLPCDYLSGLGFGEDACNTDCIAKGHKSGFCTGLVCRCRTL [Hill-Def8, Defensin without disulfide bridges] | < 4.19 | < 4.49 | < 4.19 | > 64.00 | < 4.49 | > 32.00 µM | < 4.19 | > 64.00 | < 4.49 | > 32.00 µM | < 4.19 | > 64.00 µM | < 4.49 | > 32.00 µM | < 4.19 | < 4.49 | < 4.19 | < 4.49 | –
8 | TTCDLISGTKIENIACAAHCIAMGHKGGYCNSNLICICR [Hill-Def7, Defensin without disulfide bridges] | < 4.19 | < 4.49 | < 4.19 | > 64.00 | < 4.49 | > 32.00 µM | < 4.19 | > 64.00 | < 4.49 | > 32.00 µM | < 4.19 | > 64.00 µM | < 4.49 | > 32.00 µM | < 4.19 | < 4.49 | < 4.19 | < 4.49 | –
9 | VTCDLLEPFLGPAPCMIHCIVRFRKRTGYCNSQNVCVCR [Hill-Def1, Defensin without disulfide bridges, C-terminal amidation] | < 4.19 | < 4.49 | < 4.19 | > 64.00 | < 4.49 | > 32.00 µM | < 4.19 | > 64.00 | < 4.49 | > 32.00 µM | < 4.19 | > 64.00 µM | < 4.49 | > 32.00 µM | < 4.19 | < 4.49 | < 4.19 | < 4.49 | –
